Patent US20250197372A1 (priority 2020, published 2025)
Where two headings read alike, the source gives them in different places.

How the values were obtained:
Type in all cases: biochemical
[1] = target: rat maltase (partially purified alpha-glucosidase from intestinal rat powder); assay: Intestinal alpha-glucosidase assay, maltose substrate (Glucose GO Kit)
Experimental: Intestinal alpha-glucosidases (rat maltase and sucrase): Intestinal alpha-glucosidases act upon 1,4-alpha-glucoside bonds, breaking down disaccharides to glucose. To perform this assay, partially purified alpha-glucosidase from intestinal rat powder was incubated for 60 minutes at 37° C. with multiple dilutions of test compounds. Maltose or Sucrose respectively was then introduced as substrate to the mixture and incubated for 30 minutes at 37° C. The reaction was stopped by a 5-minute incubation at 90° C. and the resultant glucose production is detected using Sigma's Glucose GO Kit. Percent inhibition was then plotted as a function of concentration for each test compound. The IC50 was determined using a 4-PL curve fit and serves as the measure of relative inhibition of each test compound (see Table 3).

[2] = target: T1, recombinant alpha-glucosidase II (murine full-length glucosidase II, alpha and beta subunits, Glu 2) (Mus musculus, UniProt Q8BHN3); assay: Alpha-glucosidase II assay (4-methylumbelliferyl-alpha-D-pyranoside substrate, fluorescence)
T1 construct: made in house; host or cells: HEK-293T cells transduced with BacMam viruses (75% alpha, 25% beta); protein harvested from culture supernatant

[3] = target: T2, recombinant alpha-glucosidase I (human full-length glucosidase I, Glu 1) (Homo sapiens, UniProt Q13724); assay: Alpha-glucosidase I assay (Amplex Red glucose detection, synthetic trisaccharide substrate)
T2 construct: 6-His (C); made in house; host or cells: HEK-293T cells transduced with BacMam virus (virus raised in Sf9)
T2 sequence (Q13724 1-837): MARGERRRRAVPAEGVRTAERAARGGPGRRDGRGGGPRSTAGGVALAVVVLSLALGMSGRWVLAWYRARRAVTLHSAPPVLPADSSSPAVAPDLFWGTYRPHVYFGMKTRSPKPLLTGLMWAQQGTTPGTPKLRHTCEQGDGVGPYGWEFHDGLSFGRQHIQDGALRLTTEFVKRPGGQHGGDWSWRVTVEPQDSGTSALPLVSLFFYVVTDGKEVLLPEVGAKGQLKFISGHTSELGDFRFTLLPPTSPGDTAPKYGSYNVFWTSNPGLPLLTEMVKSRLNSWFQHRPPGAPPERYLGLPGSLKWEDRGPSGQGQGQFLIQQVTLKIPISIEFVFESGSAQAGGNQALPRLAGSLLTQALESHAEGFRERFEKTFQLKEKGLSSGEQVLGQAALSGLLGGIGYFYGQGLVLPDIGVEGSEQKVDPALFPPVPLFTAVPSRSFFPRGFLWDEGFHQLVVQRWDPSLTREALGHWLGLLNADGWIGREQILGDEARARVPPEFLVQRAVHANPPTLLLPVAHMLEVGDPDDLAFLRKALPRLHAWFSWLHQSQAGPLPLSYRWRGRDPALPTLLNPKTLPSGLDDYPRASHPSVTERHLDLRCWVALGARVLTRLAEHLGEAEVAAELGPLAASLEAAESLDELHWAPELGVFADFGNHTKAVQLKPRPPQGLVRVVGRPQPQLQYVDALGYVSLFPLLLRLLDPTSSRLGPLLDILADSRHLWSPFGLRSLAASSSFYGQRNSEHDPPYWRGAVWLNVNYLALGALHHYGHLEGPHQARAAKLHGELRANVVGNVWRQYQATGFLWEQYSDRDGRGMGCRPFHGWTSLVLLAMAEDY
From the text: Preparation of Human Full-length Glucosidase I: The amino acid sequence for human full-length glucosidase I was obtained from UniProt (Q13724). […] The entry vector was cloned into Kemp Proteins' BacMam Destination vector and transformed into chemically competent DH10Bac E. coli cells to produce recombinant glucosidase I bacmids. Bacmid isolates were obtained following two rounds of blue-white screening and they were transfected into Sf9 cells cultivated in serum-free medium (Thermo Fisher Scientific). Four days post-transfection the culture supernatants containing virus were harvested and filter sterilized. […] A multiplicity of infection (MOI, ratio of virus to cells) of 4 was selected. Soluble glucosidase I was detected by anti-His western blots in the soluble cell extract following extraction with 1% V/V NP40 for 30 minutes at 0° C. Productions and purifications of glucosidase I were carried out at scales ranging from 1-liter to 10-liters. […] In another example production at the 10-liter scale was performed in stirred-tank bioreactors at 27° C. and 80 rpm with dissolved oxygen level at 50% of oxygen in air and pH between 7.0 and 7.2. Cells were transduced at MOI of 4 and the cell pellet was harvested at 48 hours post-transduction using centrifugation.
The pellet from a 10-liter culture was lysed by resuspending the pellet into 1-liter of 50 mM NaH2PO4—H2O+300 mM NaCl+10 mM Imidazole+1 mM PMSF+1% V/V NP40 pH 8. The suspension was incubated on ice for 30 minutes and clarified at 500×g and 4° C. The supernatant was collected and clarified at 20,000×g for 30 minutes at 4° C. and the supernatant was collected and filtered through a 0.2 micron filter. […] The column was washed with 20 column volumes (CV) of 50 mM NaH2PO4-H2O+300 mM NaCl+10 mM Imidazole pH 8 and eluted using a linear gradient of 0-60% 50 mM NaH2PO4-H2O+300 mM NaCl+500 mM Imidazole pH 8 over 90 minutes. at 5 mL per minute. Fractions (25 mL) were collected and analyzed by SDS PAGE and Western Blot (reducing anti-His). Fractions containing purified glucosidase I were pooled and dialyzed into storage buffer (20 mM Tris+300 mM NaCl+50 mM L-arginine+10 mM EDTA+0.01% V/V Tween 80 pH 7.5). The final material was filter sterilized and stored at 4° C. and the working dilution confirmed by a use-test in the indicated assay conditions prior to use.
Alpha-glucosidase I Assay: The assay was performed by incubating recombinant alpha-glucosidase I enzyme with multiple dilutions of test compounds for 60 minutes at 37° C. A synthetic trisaccharide substrate analog was then introduced to the mixture for 90 minutes at 37° C. The reaction was then stopped with 1.5M Tris (pH 8). In the absence of inhibition, the terminal glucose of the substrate was hydrolyzed by the enzyme. The D-glucose product was detected using Amplex Red Glucose/Glucose Oxidase Assay Kit (Invitrogen) following the manufacturer's directions where glucose oxidase reacts with D-glucose to form D-gluconolactone and H2O2 which then reacts with the Amplex Red reagent to generate a red-fluorescent oxidation product (560 nm, excitation; 590 nm, emission). […] Percent inhibition is plotted as a function of concentration for each compound, compared to control reactions. The IC50 was determined using a 4-PL curve fit and serves as a measure of relative inhibitory activity of each test compound (see Table 3).

[4] = Glucosidase 2, read-out: Glu2 IC50
[5] = Glucosidase 1, read-out: Glu 1 IC50

T1 sequence (O08795 15-521): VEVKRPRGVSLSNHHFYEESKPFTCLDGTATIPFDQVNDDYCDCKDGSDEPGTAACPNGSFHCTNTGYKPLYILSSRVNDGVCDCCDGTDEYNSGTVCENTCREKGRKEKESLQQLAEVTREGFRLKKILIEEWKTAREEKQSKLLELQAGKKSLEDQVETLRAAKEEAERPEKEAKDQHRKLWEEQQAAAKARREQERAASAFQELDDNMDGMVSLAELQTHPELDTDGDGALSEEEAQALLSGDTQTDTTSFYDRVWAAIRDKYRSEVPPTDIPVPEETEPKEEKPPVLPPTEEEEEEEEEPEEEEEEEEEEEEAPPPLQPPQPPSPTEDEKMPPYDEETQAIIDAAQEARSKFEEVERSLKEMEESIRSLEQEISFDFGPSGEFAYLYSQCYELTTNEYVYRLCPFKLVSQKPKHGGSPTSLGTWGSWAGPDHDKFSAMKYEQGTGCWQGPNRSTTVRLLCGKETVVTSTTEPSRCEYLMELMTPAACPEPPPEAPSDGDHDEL
T1 sequence (Q8BHN3 33-944): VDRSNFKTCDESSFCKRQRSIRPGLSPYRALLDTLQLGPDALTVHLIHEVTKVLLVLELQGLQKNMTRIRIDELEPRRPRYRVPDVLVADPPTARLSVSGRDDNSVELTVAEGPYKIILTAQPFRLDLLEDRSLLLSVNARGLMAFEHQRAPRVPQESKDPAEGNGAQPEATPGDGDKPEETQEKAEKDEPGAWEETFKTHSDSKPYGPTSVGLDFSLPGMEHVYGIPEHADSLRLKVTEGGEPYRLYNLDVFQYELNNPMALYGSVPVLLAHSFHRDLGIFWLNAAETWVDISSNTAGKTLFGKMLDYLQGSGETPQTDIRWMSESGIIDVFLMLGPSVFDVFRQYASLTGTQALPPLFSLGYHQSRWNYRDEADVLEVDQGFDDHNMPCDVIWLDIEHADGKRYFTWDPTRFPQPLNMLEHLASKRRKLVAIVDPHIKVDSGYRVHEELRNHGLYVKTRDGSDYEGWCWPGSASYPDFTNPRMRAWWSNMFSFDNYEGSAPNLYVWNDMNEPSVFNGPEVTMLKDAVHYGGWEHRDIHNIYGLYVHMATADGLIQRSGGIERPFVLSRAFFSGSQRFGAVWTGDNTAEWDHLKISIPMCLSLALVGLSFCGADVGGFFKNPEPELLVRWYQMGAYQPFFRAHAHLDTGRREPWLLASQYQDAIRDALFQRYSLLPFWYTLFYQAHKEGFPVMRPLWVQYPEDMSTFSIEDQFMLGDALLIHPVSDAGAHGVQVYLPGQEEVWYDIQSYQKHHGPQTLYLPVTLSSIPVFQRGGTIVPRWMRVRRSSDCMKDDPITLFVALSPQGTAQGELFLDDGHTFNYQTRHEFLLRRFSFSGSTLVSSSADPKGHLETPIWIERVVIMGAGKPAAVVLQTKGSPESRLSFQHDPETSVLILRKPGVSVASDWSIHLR

CCCc1nc(-c2cc(Cl)cc(NCCc3ccc(CCN4C[C@H](O)[C@@H](O)[C@H](O)[C@H]4CO)cc3)c2)no1 [Compound 1123, (2R,3R,4R,5S)-1-{2-[4-(2-{[3-chloro-5-(5-propyl-1,2,4-oxadiazol-3-yl)phenyl]amino}ethyl)phenyl]ethyl}-2-(hydroxymethyl)piperidine-3,4,5-triol]
IC50 [1]: 440 nM
IC50 [2, 4]: 329 nM
IC50 [3, 5]: 1360 nM

[N-]=[N+]=Nc1ccc(NCCc2ccc(CCN3C[C@H](O)[C@@H](O)[C@H](O)[C@H]3CO)cc2)c([N+](=O)[O-])c1 [Compound 1200, (2R,3R,4R,5S)-1-[2-(4-{2-[(4-azido-2-nitrophenyl)amino]ethyl}phenyl)ethyl]-2-(hydroxymethyl)piperidine-3,4,5-triol]
IC50 [1]: 81 nM
IC50 [2, 4]: 6 nM
IC50 [3, 5]: 31 nM

[N-]=[N+]=Nc1ccc(NCCc2cncc(CCN3C[C@H](O)[C@@H](O)[C@H](O)[C@H]3CO)n2)c([N+](=O)[O-])c1 [Compound 1187, (2R,3R,4R,5S)-1-[2-(6-{2-[(4-azido-2-nitrophenyl)amino]ethyl}pyrazin-2-yl)ethyl]-2-(hydroxymethyl)piperidine-3,4,5-triol]
IC50 [1]: 1200 nM
IC50 [2, 4]: 3 nM
IC50 [3]: 94 nM

CS(=O)(=O)c1cc(NCc2cccc(CN3C[C@H](O)[C@@H](O)[C@H](O)[C@H]3CO)c2)cc(-c2ncccn2)c1 [Compound 1041, (2R,3R,4R,5S)-2-(hydroxymethyl)-1-{[3-({[3-methanesulfonyl-5-(pyrimidin-2-yl)phenyl]amino}methyl)phenyl]methyl}piperidine-3,4,5-triol]
IC50 [1]: 79 nM
IC50 [2, 4]: 7180 nM
IC50 [3]: 17 nM

CC(=O)Nc1cc(NCCCCCCN2C[C@H](O)[C@@H](O)[C@H](O)[C@H]2CO)cc(-c2ncccn2)c1 [Compound 1125, N-[3-(pyrimidin-2-yl)-5-({6-[(2R,3R,4R,5S)-3,4,5-trihydroxy-2-(hydroxymethyl)piperidin-1-yl]hexyl}amino)phenyl]acetamide]
IC50 [1]: 15 nM
IC50 [2, 4]: 19 nM
IC50 [3, 5]: 337 nM

COc1cc(Cc2ccccc2)cc(NCCCCCCN2C[C@H](O)[C@@H](O)[C@H](O)[C@H]2CO)c1 [Compound 1145, (2R,3R,4R,5S)-1-{6-[(3-benzyl-5-methoxyphenyl)amino]hexyl}-2-(hydroxymethyl)piperidine-3,4,5-triol]
IC50 [1]: < 1 nM
IC50 [2, 4]: < 1 nM
IC50 [3, 5]: 283 nM

[N-]=[N+]=Nc1ccc(NCCc2nccc(CCN3C[C@H](O)[C@@H](O)[C@H](O)[C@H]3CO)n2)c([N+](=O)[O-])c1 [Compound 1188, (2R,3R,4R,5S)-1-[2-(2-{2-[(4-azido-2-nitrophenyl)amino]ethyl}pyrimidin-4-yl)ethyl]-2-(hydroxymethyl)piperidine-3,4,5-triol]
IC50 [1]: 164 nM
IC50 [2, 4]: 1140 nM
IC50 [3, 5]: 762 nM

OC[C@@H]1[C@@H](O)[C@H](O)[C@@H](O)CN1CCCCCCNc1ccc(-c2cccnn2)cc1Cl [Compound 1202, (2R,3R,4R,5S)-1-(6-{[2-chloro-4-(pyridazin-3-yl)phenyl]amino}hexyl)-2-(hydroxymethyl)piperidine-3,4,5-triol]
IC50 [1]: < 1 nM
IC50 [2, 4]: < 1 nM
IC50 [3, 5]: < 1 nM

OC[C@@H]1[C@@H](O)[C@H](O)[C@@H](O)CN1Cc1ccc(CNc2cc(C3CC3)cc(N3CCOCC3)c2)cc1 [Compound 1010, (2R,3R,4R,5S)-1-{[4-({[3-cyclopropyl-5-(morpholin-4-yl)phenyl]amino}methyl)phenyl]methyl}-2-(hydroxymethyl)piperidine-3,4,5-triol]
IC50 [1]: 12 nM
IC50 [2, 4]: 1070 nM
IC50 [3, 5]: 199 nM

CC(C)(C)c1cc(NCCCCCCN2C[C@H](O)[C@@H](O)[C@H](O)[C@H]2CO)cc(-c2ncccn2)c1 [Compound 1151, (2R,3R,4R,5S)-1-(6-{[3-tert-butyl-5-(pyrimidin-2-yl)phenyl]amino}hexyl)-2-(hydroxymethyl)piperidine-3,4,5-triol]
IC50 [1]: < 1 nM
IC50 [2, 4]: < 1 nM
IC50 [3, 5]: 99 nM

[N-]=[N+]=Nc1ccc(NCCc2ccc(CCN3C[C@H](O)[C@@H](O)[C@H](O)[C@H]3CO)s2)c([N+](=O)[O-])c1 [Compound 1186, (2R,3R,4R,5S)-1-[2-(5-{2-[(4-azido-2-nitrophenyl)amino]ethyl}hiophen-2-yl)ethyl]-2-(hydroxymethyl)piperidine-3,4,5-triol]
IC50 [1]: 5 nM
IC50 [2, 4]: 1 nM
IC50 [3, 5]: 3 nM

OC[C@@H]1[C@@H](O)[C@H](O)[C@@H](O)CN1CCc1ccc(CCNc2cc(Cl)cc(-c3ncon3)c2)cc1 [Compound 1113, (2R,3R,4R,5S)-1-{2-[4-(2-{[3-chloro-5-(1,2,4-oxadiazol-3-yl)phenyl]amino}ethyl)phenyl]ethyl}-2-(hydroxymethyl)piperidine-3,4,5-triol]
IC50 [1]: 20 nM
IC50 [2]: 296 nM
IC50 [3]: 1010 nM

OC[C@@H]1[C@@H](O)[C@H](O)[C@@H](O)CN1CCCCCCNc1cc(Cl)cc(-c2cnccn2)c1 [Compound 1196, (2R,3R,4R,5S)-1-(6-{[3-chloro-5-(pyrazin-2-yl)phenyl]amino}hexyl)-2-(hydroxymethyl)piperidine-3,4,5-triol]
IC50 [1]: 2 nM
IC50 [2, 4]: 2 nM
IC50 [3, 5]: 105 nM

COc1cc(NCCc2ccc(CCN3C[C@H](O)[C@@H](O)[C@H](O)[C@H]3CO)cc2)cc(C2=CCOCC2)c1 [Compound 1154, (2R,3R,4R,5S)-1-{2-[4-(2-{[3-(3,6-dihydro-2H-pyran-4-yl)-5-methoxyphenyl]amino}ethyl)phenyl]ethyl}-2-(hydroxymethyl)piperidine-3,4,5-triol]
IC50 [1]: 624 nM
IC50 [2, 4]: 2 nM
IC50 [3, 5]: 919 nM
